Data from patent US10947188B2, “Small molecule ferroptosis inducers” (THE TRUSTEES OF COLUMBIA UNIVERSITY IN THE CITY OF NEW YORK, priority 2016, dated 2021).
In brackets after ≈: the same amount, converted by molar mass.

Key:
[1] = Cobalt (II) binding assay in vitro (absorbance spectrum); settings: absorbance 300-700 nm
Experimental: For each cluster I compound (CIL13, −52, and −64), prepared two-fold dilution series with DMSO. We added 30 μL per well of either water or 10 μM cobalt (II) chloride solution to each well of a 384-well plate. Dilution series of each compound in DMSO were added by 10 μL per well. After solutions had been mixed by shaking of the plate using a Victor 3 plate reader (PerkinElmer), absorbance was scanned between 300 and 700 nm for each compound. Finally the following Absorbance value for each compound was plotted (see FIG. 9B):
[formula] where Abs is the absorbance at each wavelength. Search of Commercially Available Structural Analogs of CIL41/70.

[2] = system: HT-1080 cells; test: Lethality of commercially available CIL41/70 structural analogs; type: cell-based; settings: Homo sapiens, tested once in technical triplicates
Outline: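 HT-1080 cells (1,000/well) dosed at seeding with twofold 12-point dilutions of lethal compounds. Viability read by Alamar Blue fluorescence (530/590 nm) after 6 h, normalized to media and vehicle wells. Analogs tested once, in technical triplicate.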

[3] = system: HT-1080 cells; test: Analysis of lipid ROS generation (C11-BODIPY 581/591 flow cytometry); type: cell-based; settings: HT-1080; 6 h; with or without deferoxamine
Experimental: Cells were treated with test compounds, trypsinized, pelleted, and washed once with PBS. For lipophilic or aqueous ROS detection, cells were re-suspended in Hanks' Balanced Salt Solution (HBSS; […] Cells were then pelleted, re-suspended in 500 μL HBSS, strained through a 40-μm cell strainer (BD Falcon), and analyzed using a BD Accuri C6 flow cytometer (BD Biosciences). Both dyes were measured in the FL1 channel. Experiments were done in biological triplicates.

[4] = system: GPX4 transcripts; test: Reverse-transcription quantitative PCR of GPX4 transcripts; type: cell-based; settings: 5 μM FIN56
Experimental: Trypsinized 0.2 to 1 million cells grown in six-well dishes, pelleted them, resuspended them in Buffer RLT (Qiagen), and homogenized them with QlAshredder (Qiagen). RNA was further extracted using the RNeasy Mini Kit (Qiagen). We converted 2 μg of extracted RNA from each sample into cDNA using TaqMan reverse-transcription reagents (Life Technologies). qPCR primers were designed to detect all splicing variants using Primer Express 2.0 (Applied Biosystems). The designed primers were confirmed to amplify only the designated gene transcripts using in silico PCR (see, e.g., http://genome.ucsc.edu/cgi-bin/hgPcr). For qPCR reactions, primers, cDNA, and Power SYBR Green PCR Master Mix (Applied Biosystems) were mixed, and quantitation was performed using a StepOnePlus real-time PCR system (Applied Biosystems). Experiments were done in biological triplicates.

[5] = system: 143B cells; test: FIN56 lethality in 143B cells with or without mitochondrial DNA; type: cell-based; settings: ρ+ or ρ0 cells
Text: CoQ10 is an electron carrier in the mitochondrial respiratory chain and an endogenous antioxidant. However, whether it functions in the regulation of ferroptosis via either of these mechanisms remains to be elucidated. […] Thus, exactly how CoQ10 protects cells from FIN56 remains elusive, but the process may involve reprogramming of lipid metabolism in a way that is not conducive to the execution of ferroptosis, or a specific antioxidant action distinct from that of α-tocopherol.

[6] = system: GPX1; test: Western blotting of GPX1 protein abundance; type: cell-based, human; settings: BJeLR; FIN56 5 μM, 10 h
Experimental: Seeded 300,000 cells (HT-1080 or BJeLR) per well in six-well plates. For cotreatment, ferroptosis inducers (10 μM erastin for 11 h, 0.5 μM (1S, 3R)-RSL3 for 2 h, or 5 μM FIN56) and 100 μM α-tocopherol were added to cell culture at the same time, and cells were then incubated for 10 h (FIG. 2E). When other death-modulating compounds (100 nM sodium selenite, 1 μM cerivastatin, 100 μg/mL mevalonic acid, 30 μM C75, or 2 μM cerulenin) were used in cotreatments, cells were pre-incubated with the modulators for 24 h before being treated with ferroptosis inducers for 6 h. Cell lysis, SDS-PAGE and protein transfer to PVDF membrane were performed as previously described (Dixon et al. 2012). We used the following antibodies: anti-human α-tubulin (Santa Cruz Biotechnology, sc-32293, 1:10,000 dilution), anti-human GPX4 (Abcam, ab41787, 1:2,000 dilution), anti-human GPX1 (R&D Systems, AF3798, 1:1,000 dilution), and anti-human SQS (Abcam, ab109723 for full-length, ab195046 for truncated, both at 1:1,000 dilution). Secondary antibodies were from LI-COR (1:3,000 dilution). The PVDF membranes labeled with primary and secondary antibodies were scanned using an Odyssey Imaging System (LI-COR). Experiments were performed in biological triplicates, and the mean±s.e. of intensity was plotted.

[7] = system: NCI60 cell line panel; test: Cell-line selectivity in the NCI60 cell line panel; type: cell-based
Text: Previously reported ferroptosis inducers either deplete glutathione (by inhibiting cystine uptake) or are covalent GPX4 inhibitors.

[8] = system: HT-1080 cells; test: Flow cytometry of intracellular Ca(II) levels (Fluo-4); type: cell-based; settings: 2 μM FIN56; over the course of 9 h
Text: The third compound set examined was suppressors of both ferroptosis and necrosis. These were predicted to target three proteins: alpha-1 (α1) adrenergic receptors 1B and 1D and calmodulin 3. Activation of α1 activates phospholipase C and increases Ca(II). Calmoduline 3 is a calcium-binding protein. Since all three proteins are relevant to calcium signaling, we hypothesized that calcium mediates FIN56-induced ferroptosis.

Compound: Cc1cccnc1Nc1nc(-c2ccccn2)cs1 [CIL13]
- binding to cobalt (II) in vitro [1]: bound to cobalt (II) in vitro

Compound: N/C(=N\OC(=O)C12CC3CC(CC(C3)C1)C2)c1ccccc1 [CIL41]
- EC50 [2]: 2.8 µg/mL (≈ 9.38 µM)

Compound: O=S(=O)(c1ccc2c(c1)C(=NO)c1cc(S(=O)(=O)N3CCCCC3)ccc1-2)N1CCCCC1 [CIL56, 2,7-bis(piperidin-1-ylsulfonyl)-9H-fluoren-9-one oxime]
- lipid ROS generation (BODIPY-581/591 C11) [3]: induced iron-dependent ROS

Compound: O=S(=O)(NC1CCCCC1)c1ccc2c(c1)C(=NO)c1cc(S(=O)(=O)NC3CCCCC3)ccc1-2 [FIN56, N2,N7-dicyclohexyl-9-(hydroxyimino)-9H-fluorene-2,7-disulfonamide]
- GPX4 transcript level [4]: increased, rather than decreased
- sensitivity of 143B cells with or without mitochondrial DNA [5]: both sensitive to FIN56-induced ferroptosis
- abundance of GPX1 protein [6]: but not that of the related selenoprotein GPX1, was substantially decreased
- cell-line selectivity pattern in NCI60 [7]: more similar to other GPX4 inhibitors than to GSH-depleting compounds
- intracellular Ca(II) levels (Fluo-4) [8]: increased intracellular Ca(II) levels
